Data on 1 compound can be found in patent US20250205158A1, “BIODEGRADABLE LIPIDS AND FORMULATIONS FOR DELIVERY OF MRNA” (Massachusetts Institute of Technology, priority 2023, published 2025).

SMILES strings stand for the structures. “Also recorded” adds a separate entry of the source.

For one experiment, the system named is BALB/c mice. The following applies: spike mRNA LNPs on day 0 and day 21, serum day 35.
Experiment [1] deals with mice. The experiment is described as follows: Germinal center response after HA mRNA LNP prime dose. It is filed as in vivo, BALB/cJ mice. The following applies: LDLN 8 days following a prime dose.
Experiment [2] relates to mice. Kind of experiment: hEPO mRNA LNP protein production after intravenous administration. It is filed as in vivo.
Where [3] appears, read: intravenous delivery of mRNA to the liver (FIG. 18), EPO in blood 6 hours.

Description for BALB/c mice: Briefly, 6-8 week old BALB/c mice were vaccinated with 1 g of mRNA LNPs on day 0 and on day 21, and serum was collected on day 35 to characterize the antibody response to vaccination.
Immunization studies. […] All LNPs were injected IM in the quadricep with an injection volume of 50 μL with the doses specified in the main text. All vaccination experiments followed a prime-boost dosing regimen with doses given on day 0 and day 21. On day 35, mice were sacrificed, and blood was collected via cardiac puncture and their spleens were collected for further characterization.
Binding antibody ELISAs. […] Plates were coated overnight at 4° C. by adding 100 μL of a 1 μg/mL antigen solution in 100 mM carbonate buffer, pH 9.6 to each well. The coated plates were then washed with ELISA wash buffer (Biolegend) and blocked for 1 hr. at room temperature (RT) with 150 μL of 1% BSA in PBS. The plate was then washed again, and 100 μL of serially diluted serum samples were then added to the plate and incubated at RT for 1 hr. Next, the plate was washed and the secondary goat anti-mouse IgG, HRP antibody (ThermoFisher) was diluted 1:3,000. 100 μL of this solution added to each well an incubated at RT for 1 hr. After incubation, the plate was washed and 100 μL of TMB chromogen solution (ThermoFisher) was added to each well and incubated for 30 mins. Finally, the HRP reaction was stopped by the addition of 100 μL of 0.5 M H2SO4. The absorbance of each well was immediately read at 450 nm with 600 nm as a reference using an Infinite M200 Pro (Tecan) plate reader. The resultant data were then fit with a 4-PL sigmodal curve and the endpoint titers were taken as the point at which this curve crossed four times the absorbance of the blank wells.

In the case of `CCCCCC/C=C\CCCC(=O)OCC(O)CN1CCN(CC(O)COC(=O)CCC/C=C\CCCCCC)CCN(CC(O)COC(=O)CCC/C=C\CCCCCC)CCN(CC(O)COC(=O)CCC/C=C\CCCCCC)CCN(CC(O)COC(=O)CCC/C=C\CCCCCC)CCN(CC(O)COC(=O)CCC/C=C\CCCCCC)CC1` (centres unmarked) [AMG1541], the “antibody titers after vaccination” value in the experiment on BALB/c mice was “high antibody titers; also recorded: highest antibody titers”. In the experiment with mice [1], the “fold higher Ag+ GC B cells than SM-102 treated mice” value is 6.0 fold and the “fold more Fas+GL7+ GC B cells than SM-102 treated mice” value was found to be 4.8 fold. The “hEPO expression profile in the liver, comparable to MD-1” value in the experiment with mice [2] (administered intravenously) is “excellent hEPO expression profile”. In the experiment on mice [2] (dose range of 0.25-1 mg/kg), the “hEPO protein expression in liver” value is recorded as “consistent levels of protein expression”. The “fold higher protein expression than Lipid 5” value in the experiment on mice [2] (hEPO mRNA, 1 mg/kg dose) was 3-4 fold. For the same compound, the hEPO protein expression result with mice [2] (higher doses beyond 2 mg/kg) was “reduced protein expression”. In addition, the “expression relative to cKK-E12” value with mice [2] (intravenous delivery of mRNA to the liver (FIG. 18)) is “comparable expression to cKK-E12”. Besides, in the experiment with mice [2] (setting [3]), the “fold higher expression than LP-01” value is recorded as roughly 5 fold and the “fold higher expression than Lipid 5” value was roughly 3 fold. Besides, the “hEPO production in liver, repeat dosing” value in the experiment with mice [2] (repeat dosing over 3 weeks at 0.05-1 mg/kg) is given as “consistent hEPO production”.
